Laboratory results taken from the kinase profiling compilation of Christmann-Franck et al. (2016).

How the values were obtained:
Experiment in all cases: KINOMEscan competition binding
Settings in all cases: compound 10.0 µM
TNIK (human) = TNIK (human) (UniProt Q9UKE5)
BLK (human) = BLK (human) (UniProt P51451)
PLK3 (human) = PLK3 (human) (UniProt Q9H4B4)
CDK14 (human) = CDK14 (human) (UniProt O94921)
PTK6 (human) = PTK6 (human) (UniProt Q13882)
BRSK2 (human) = BRSK2 (human) (UniProt Q8IWQ3)
NTRK1 (human) = NTRK1 (human) (UniProt P04629)
CAMK1G (human) = CAMK1G (human) (UniProt Q96NX5)
EPHA7 (human) = EPHA7 (human) (UniProt Q15375)
TNK1 (human) = TNK1 (human) (UniProt Q13470)
PIP4K2B (human) = PIP4K2B (human) (UniProt P78356)
AURKC (human) = AURKC (human) (UniProt Q9UQB9)
MYLK (human) = MYLK (human) (UniProt Q15746)
TLK1 (human) = TLK1 (human) (UniProt Q9UKI8)
MAP3K4 (human) = MAP3K4 (human) (UniProt Q9Y6R4)
CSNK1E (human) = CSNK1E (human) (UniProt P49674)
[1] = tested on: FLT3 (human), P36888 [N841I]
NUAK2 (human) = NUAK2 (human) (UniProt Q9H093)
PRKCD (human) = PRKCD (human) (UniProt Q05655)
ANKK1 (human) = ANKK1 (human) (UniProt Q8NFD2)
[2] = tested on: EIF2AK4 KD2 (human), Q9P2K8 [S808G]
WEE2 (human) = WEE2 (human) (UniProt P0C1S8)
PDPK1 (human) = PDPK1 (human) (UniProt O15530)
PTK2B (human) = PTK2B (human) (UniProt Q14289)
DAPK3 (human) = DAPK3 (human) (UniProt O43293)
TNNI3K (human) = TNNI3K (human) (UniProt Q59H18)
TSSK1B (human) = TSSK1B (human) (UniProt Q9BXA7)
CIT (human) = CIT (human) (UniProt O14578)
MAP3K3 (human) = MAP3K3 (human) (UniProt Q99759)
MAPK11 (human) = MAPK11 (human) (UniProt Q15759)
CaMK1 (human) = CaMK1 (human) (UniProt Q14012)
MAP4K5 (human) = MAP4K5 (human) (UniProt Q9Y4K4)
MELK (human) = MELK (human) (UniProt Q14680)
STK35 (human) = STK35 (human) (UniProt Q8TDR2)
PKN1 (human) = PKN1 (human) (UniProt Q16512)
CSNK1G3 (human) = CSNK1G3 (human) (UniProt Q9Y6M4)
CAMK4 (human) = CAMK4 (human) (UniProt Q16566)
RIOK1 (human) = RIOK1 (human) (UniProt Q9BRS2)
ABL2 (human) = ABL2 (human) (UniProt P42684)
NEK5 (human) = NEK5 (human) (UniProt Q6P3R8)

Sequence of TNK1 (human) (Q13470 whole entry, looked up): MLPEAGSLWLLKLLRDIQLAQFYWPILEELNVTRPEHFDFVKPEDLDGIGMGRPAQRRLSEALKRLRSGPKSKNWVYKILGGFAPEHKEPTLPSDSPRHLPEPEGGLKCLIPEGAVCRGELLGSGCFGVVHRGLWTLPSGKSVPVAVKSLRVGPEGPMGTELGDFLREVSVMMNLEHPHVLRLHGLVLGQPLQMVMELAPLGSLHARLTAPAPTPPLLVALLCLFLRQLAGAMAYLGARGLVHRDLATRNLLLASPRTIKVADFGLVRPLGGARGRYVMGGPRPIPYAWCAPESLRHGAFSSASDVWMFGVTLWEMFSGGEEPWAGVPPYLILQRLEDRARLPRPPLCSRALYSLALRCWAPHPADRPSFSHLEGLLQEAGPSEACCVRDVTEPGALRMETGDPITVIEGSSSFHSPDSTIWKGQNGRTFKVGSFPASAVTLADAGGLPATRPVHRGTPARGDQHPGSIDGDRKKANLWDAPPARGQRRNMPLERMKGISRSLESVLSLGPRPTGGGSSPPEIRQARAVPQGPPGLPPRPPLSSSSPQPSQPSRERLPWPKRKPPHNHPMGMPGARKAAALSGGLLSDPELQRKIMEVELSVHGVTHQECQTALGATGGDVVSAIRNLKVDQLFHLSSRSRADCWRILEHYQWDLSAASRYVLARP
Sequence of PKN1 (human) (Q16512 whole entry, looked up): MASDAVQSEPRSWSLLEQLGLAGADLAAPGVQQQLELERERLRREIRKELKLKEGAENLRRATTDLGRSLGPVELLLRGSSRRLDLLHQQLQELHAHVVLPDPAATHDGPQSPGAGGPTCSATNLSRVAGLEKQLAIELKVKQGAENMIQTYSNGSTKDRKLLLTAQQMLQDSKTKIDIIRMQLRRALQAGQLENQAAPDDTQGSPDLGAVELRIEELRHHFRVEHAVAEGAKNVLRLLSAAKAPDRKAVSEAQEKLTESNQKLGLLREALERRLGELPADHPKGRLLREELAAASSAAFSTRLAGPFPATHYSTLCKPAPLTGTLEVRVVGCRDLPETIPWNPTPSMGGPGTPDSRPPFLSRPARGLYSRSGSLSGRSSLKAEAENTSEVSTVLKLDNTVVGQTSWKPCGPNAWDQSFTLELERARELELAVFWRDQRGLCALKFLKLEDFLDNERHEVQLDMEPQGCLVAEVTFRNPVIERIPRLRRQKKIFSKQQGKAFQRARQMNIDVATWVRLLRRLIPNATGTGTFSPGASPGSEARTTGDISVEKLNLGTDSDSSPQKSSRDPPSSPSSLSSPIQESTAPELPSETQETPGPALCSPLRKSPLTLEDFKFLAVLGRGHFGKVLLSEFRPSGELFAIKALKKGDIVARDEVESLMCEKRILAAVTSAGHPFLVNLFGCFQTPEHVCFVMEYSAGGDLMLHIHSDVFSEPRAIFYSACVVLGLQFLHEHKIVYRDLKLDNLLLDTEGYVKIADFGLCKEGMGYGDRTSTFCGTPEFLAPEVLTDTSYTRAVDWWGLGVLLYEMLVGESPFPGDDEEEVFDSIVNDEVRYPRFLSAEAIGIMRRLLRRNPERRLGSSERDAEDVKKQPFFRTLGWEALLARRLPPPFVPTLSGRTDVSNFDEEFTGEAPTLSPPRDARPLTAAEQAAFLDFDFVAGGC
Sequence of PTK2B (human) (Q14289 whole entry, looked up): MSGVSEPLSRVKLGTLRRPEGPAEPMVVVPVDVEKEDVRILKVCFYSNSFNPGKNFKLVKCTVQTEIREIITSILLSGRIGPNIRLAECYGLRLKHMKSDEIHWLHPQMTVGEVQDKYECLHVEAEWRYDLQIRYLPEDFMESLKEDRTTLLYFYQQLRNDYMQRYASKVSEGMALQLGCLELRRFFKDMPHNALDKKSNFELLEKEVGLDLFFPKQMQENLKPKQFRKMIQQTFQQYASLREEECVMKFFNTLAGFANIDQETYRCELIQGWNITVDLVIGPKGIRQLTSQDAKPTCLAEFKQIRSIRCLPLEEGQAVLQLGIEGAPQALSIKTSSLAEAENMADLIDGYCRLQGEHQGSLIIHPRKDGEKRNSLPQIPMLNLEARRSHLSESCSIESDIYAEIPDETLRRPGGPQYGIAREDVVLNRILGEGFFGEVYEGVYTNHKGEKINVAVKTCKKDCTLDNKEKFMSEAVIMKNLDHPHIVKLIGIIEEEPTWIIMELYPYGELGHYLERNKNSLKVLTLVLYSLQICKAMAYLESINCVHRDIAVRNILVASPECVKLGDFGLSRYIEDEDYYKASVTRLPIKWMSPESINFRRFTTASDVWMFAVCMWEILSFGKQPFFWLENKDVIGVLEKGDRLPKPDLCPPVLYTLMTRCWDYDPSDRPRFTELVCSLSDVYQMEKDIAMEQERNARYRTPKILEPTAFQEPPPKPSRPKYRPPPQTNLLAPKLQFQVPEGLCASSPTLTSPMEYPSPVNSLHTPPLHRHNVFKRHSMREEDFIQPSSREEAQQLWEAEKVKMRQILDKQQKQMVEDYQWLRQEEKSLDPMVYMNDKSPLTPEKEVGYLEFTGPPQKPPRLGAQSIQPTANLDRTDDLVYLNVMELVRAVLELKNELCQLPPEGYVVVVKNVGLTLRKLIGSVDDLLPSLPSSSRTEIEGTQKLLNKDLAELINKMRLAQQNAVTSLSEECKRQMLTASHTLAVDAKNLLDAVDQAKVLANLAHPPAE
Sequence of RIOK1 (human) (Q9BRS2 whole entry, looked up): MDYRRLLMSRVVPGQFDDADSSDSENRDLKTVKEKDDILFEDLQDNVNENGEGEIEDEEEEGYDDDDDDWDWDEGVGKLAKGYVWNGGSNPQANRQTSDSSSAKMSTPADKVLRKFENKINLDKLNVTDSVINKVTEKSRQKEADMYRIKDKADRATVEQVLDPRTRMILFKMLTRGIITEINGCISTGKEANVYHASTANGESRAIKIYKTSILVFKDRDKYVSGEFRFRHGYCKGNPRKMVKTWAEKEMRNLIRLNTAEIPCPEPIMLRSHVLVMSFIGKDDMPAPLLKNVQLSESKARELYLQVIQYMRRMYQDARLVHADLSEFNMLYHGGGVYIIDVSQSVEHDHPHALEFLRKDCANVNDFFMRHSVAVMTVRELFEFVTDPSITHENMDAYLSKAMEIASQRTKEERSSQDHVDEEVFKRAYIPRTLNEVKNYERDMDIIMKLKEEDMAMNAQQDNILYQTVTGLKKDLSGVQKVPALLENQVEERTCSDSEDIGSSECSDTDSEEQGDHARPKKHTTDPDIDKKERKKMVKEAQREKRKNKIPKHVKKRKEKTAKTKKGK
Sequence of TNNI3K (human) (Q59H18 whole entry, looked up): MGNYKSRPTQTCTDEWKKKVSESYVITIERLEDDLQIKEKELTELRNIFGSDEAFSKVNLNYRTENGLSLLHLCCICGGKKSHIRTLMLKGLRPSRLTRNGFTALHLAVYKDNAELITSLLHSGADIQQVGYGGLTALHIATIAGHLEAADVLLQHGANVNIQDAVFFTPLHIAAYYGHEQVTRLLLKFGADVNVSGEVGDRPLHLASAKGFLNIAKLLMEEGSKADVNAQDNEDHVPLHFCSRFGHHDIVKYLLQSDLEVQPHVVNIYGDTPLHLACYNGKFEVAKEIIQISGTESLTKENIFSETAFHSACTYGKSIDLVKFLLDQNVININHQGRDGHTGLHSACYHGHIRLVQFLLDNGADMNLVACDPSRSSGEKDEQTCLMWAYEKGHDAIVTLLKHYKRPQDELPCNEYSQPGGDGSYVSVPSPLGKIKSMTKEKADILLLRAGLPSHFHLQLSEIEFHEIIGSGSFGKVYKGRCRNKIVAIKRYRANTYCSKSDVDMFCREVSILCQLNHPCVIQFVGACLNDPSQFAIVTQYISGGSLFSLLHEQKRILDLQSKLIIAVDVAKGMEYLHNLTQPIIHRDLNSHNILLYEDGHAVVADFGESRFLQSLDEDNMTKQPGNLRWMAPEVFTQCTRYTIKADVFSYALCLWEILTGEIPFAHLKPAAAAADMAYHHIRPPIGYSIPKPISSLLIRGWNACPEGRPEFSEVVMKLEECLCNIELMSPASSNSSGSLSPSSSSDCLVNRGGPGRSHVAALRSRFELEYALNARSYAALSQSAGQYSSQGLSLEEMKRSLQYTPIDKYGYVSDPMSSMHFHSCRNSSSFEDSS
Sequence of CaMK1 (human) (Q14012 whole entry, looked up): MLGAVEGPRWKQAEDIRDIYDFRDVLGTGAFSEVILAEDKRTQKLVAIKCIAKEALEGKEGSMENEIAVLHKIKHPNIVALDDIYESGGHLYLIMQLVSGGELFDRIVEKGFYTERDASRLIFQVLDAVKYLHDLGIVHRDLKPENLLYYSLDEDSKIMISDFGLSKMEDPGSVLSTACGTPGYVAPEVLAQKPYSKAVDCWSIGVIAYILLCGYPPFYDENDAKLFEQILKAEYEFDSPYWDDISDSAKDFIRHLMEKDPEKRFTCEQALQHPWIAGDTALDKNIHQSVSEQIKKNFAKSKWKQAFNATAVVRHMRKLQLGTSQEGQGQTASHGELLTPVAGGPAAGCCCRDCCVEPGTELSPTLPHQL
Sequence of AURKC (human) (Q9UQB9 whole entry, looked up): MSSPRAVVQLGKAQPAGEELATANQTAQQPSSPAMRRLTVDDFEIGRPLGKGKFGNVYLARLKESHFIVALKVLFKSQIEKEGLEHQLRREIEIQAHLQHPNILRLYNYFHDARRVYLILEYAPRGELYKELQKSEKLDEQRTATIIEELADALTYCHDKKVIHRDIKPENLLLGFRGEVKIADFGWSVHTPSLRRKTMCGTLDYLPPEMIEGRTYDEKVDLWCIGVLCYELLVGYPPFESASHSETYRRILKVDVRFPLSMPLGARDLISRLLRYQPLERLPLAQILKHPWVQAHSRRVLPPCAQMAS

Structure (SMILES) | kinase still bound, per cent of control (TNIK (human)) | kinase still bound, per cent of control (BLK (human)) | kinase still bound, per cent of control (PLK3 (human)) | kinase still bound, per cent of control (CDK14 (human)) | kinase still bound, per cent of control (PTK6 (human)) | kinase still bound, per cent of control (BRSK2 (human)) | kinase still bound, per cent of control (NTRK1 (human)) | kinase still bound, per cent of control (CAMK1G (human)) | kinase still bound, per cent of control (EPHA7 (human)) | kinase still bound, per cent of control (TNK1 (human)) | kinase still bound, per cent of control (PIP4K2B (human)) | kinase still bound, per cent of control (AURKC (human)) | kinase still bound, per cent of control (MYLK (human)) | kinase still bound, per cent of control (TLK1 (human)) | kinase still bound, per cent of control (MAP3K4 (human)) | kinase still bound, per cent of control (CSNK1E (human)) | kinase still bound, per cent of control [1] | kinase still bound, per cent of control (NUAK2 (human)) | kinase still bound, per cent of control (PRKCD (human)) | kinase still bound, per cent of control (ANKK1 (human)) | further results
N#Cc1c(NC(=O)c2cccc3ccccc23)sc2c1CCCC2 | 100% | 91% | 100% | 98% | 46% | 100% | 100% | 90% | 84% | 74% | 100% | 87% | 99% | 76% | 86% | 70% | 86% | 95% | 100% | 78% | kinase still bound, per cent of control [2]: 82%; kinase still bound, per cent of control (WEE2 (human)): 70%; kinase still bound, per cent of control (PDPK1 (human)): 81%; kinase still bound, per cent of control (PTK2B (human)): 79%; kinase still bound, per cent of control (DAPK3 (human)): 88%; kinase still bound, per cent of control (TNNI3K (human)): 52%; kinase still bound, per cent of control (TSSK1B (human)): 100%; kinase still bound, per cent of control (CIT (human)): 100%; kinase still bound, per cent of control (MAP3K3 (human)): 96%; kinase still bound, per cent of control (MAPK11 (human)): 100%; kinase still bound, per cent of control (CaMK1 (human)): 73%; kinase still bound, per cent of control (MAP4K5 (human)): 65%; kinase still bound, per cent of control (MELK (human)): 85%; kinase still bound, per cent of control (STK35 (human)): 64%; kinase still bound, per cent of control (PKN1 (human)): 94%; kinase still bound, per cent of control (CSNK1G3 (human)): 68%; kinase still bound, per cent of control (CAMK4 (human)): 100%; kinase still bound, per cent of control (RIOK1 (human)): 100%; kinase still bound, per cent of control (ABL2 (human)): 86%; kinase still bound, per cent of control (NEK5 (human)): 79%
C=CC(=O)Nc1cc(NC(=O)c2ccc(C)c(NC(=O)c3ccno3)c2)cc(C(F)(F)F)c1 | 100% | 97% | 100% | 93% | 100% | 100% | 87% | 91% | 77% | 85% | 100% | 100% | 100% | 100% | 100% | 100% | 82% | 97% | 91% | 99% | kinase still bound, per cent of control [2]: 100%; kinase still bound, per cent of control (WEE2 (human)): 84%; kinase still bound, per cent of control (PDPK1 (human)): 94%; kinase still bound, per cent of control (PTK2B (human)): 91%; kinase still bound, per cent of control (DAPK3 (human)): 96%; kinase still bound, per cent of control (TNNI3K (human)): 54%; kinase still bound, per cent of control (TSSK1B (human)): 93%; kinase still bound, per cent of control (CIT (human)): 97%; kinase still bound, per cent of control (MAP3K3 (human)): 96%; kinase still bound, per cent of control (MAPK11 (human)): 4.8%; kinase still bound, per cent of control (CaMK1 (human)): 88%; kinase still bound, per cent of control (MAP4K5 (human)): 100%; kinase still bound, per cent of control (MELK (human)): 100%; kinase still bound, per cent of control (STK35 (human)): 100%; kinase still bound, per cent of control (PKN1 (human)): 96%; kinase still bound, per cent of control (CSNK1G3 (human)): 96%; kinase still bound, per cent of control (CAMK4 (human)): 100%; kinase still bound, per cent of control (RIOK1 (human)): 100%; kinase still bound, per cent of control (ABL2 (human)): 32%; kinase still bound, per cent of control (NEK5 (human)): 100%
